Test system: FR positive human xenograft models
Assay: Mouse imaging: ^99mTc biodistribution and microSPECT/CT
Assay type: in vivo
Conditions: intravenous, tumor-bearing mice
Method: Etarfolatide kits were used for the preparation of ^99mTc-chelated radioactive drug substance. Radiochemical purity of ^99mTc-etarfolatide was determined by HPLC attached to a radiodetector. ^99mTc-etarfolatide was investigated in vivo using mice bearing FR positive human xenograft models. Test articles were administered intravenously in mice via the lateral tail vein. ^99mTc biodistribution was determined by removing selected tissues and measuring their radioactivity content in an automatic gamma-counter. High resolution three dimensional images of the radiolabel were obtained on a dual microSPECT/CT system.

[NH-][C@@H](CNC(=O)CC[C@@H](NC(=O)c1ccc(NCc2cnc3nc(N)[nH]c(=O)c3n2)cc1)C(=O)O)C(=O)[N-][C@@H](CC(=O)O)C(=O)[N-][C@@H](C[S-])C(=O)O.[O]=[Tc+4] [^99mTc-etarfolatide]
Time after which levels in normal FR-negative tissues had cleared to near baseline: 4 to 8 h | Time tumor retention remained near maximum: approximately 18 hours | Time of peak tissue levels post injection (FR-expressing tumor and kidney): 1 h
